Experimental data: patent publication US9598387B2 (Southern Research Institute, priority 2012, dated 2017)
Like-named read-outs stand apart in the source and are kept apart here.

Key:
[1] = molecular target: T1, human D3 dopamine receptor (Homo sapiens (Human), UniProt P35462); assay: Radioligand binding (125I-IABN competition), D3; conditions: for Ki: 125I-IABN competition, HEK cell membranes expressing human D3; for D2/D3 (D3 selectivity ratio, D2 Ki/D3 Ki): calculated D2 Ki/D3 Ki
Description: (§1) The affinities of the target compounds were determined using radioligand binding experiments. […] Competition curves were modeled for a single site. Data from competition dose-response curves were analyzed using Tablecurve program (Jandel). IC50 values were converted to equilibrium dissociation constants (Ki values) using the Cheng and Prusoff correction.

[2] = molecular target: T1, human D3 dopamine receptor; assay: Whole Cell Adenylyl Cyclase Assay, D3; format: cell-based; conditions: inhibition of forskolin (100 μM) stimulated cAMP, normalized to quinpirole; compound conc ≥10× Ki (per compound); mean ± S.E.M.
Description: (§2) The intrinsic activity of the compounds was evaluated by determining their ability to inhibit forskolin-dependent (100 μM) stimulation of adenylyl cyclase activity using a whole cell assay. A whole cell-cyclic AMP accumulation assay was performed with stably transfected HEK cells expressing human D2 or D3 dopamine receptors. This assay is an adaptation of an earlier published method (Su et al., Cyclic Nucleotide Res. 1976, 2, 257-285). Details regarding this method have been published (Chu, W. et al. Bioorg. Med. Chem. 2005, 13, 77-87; Taylor, M. et al. Synapse 2010, 64, 251-266). Confluent (60-80%) HEK cells transfected with recombinant D2-like dopamine receptors were grown in DMEM/10% fetal calf serum containing geneticin in […] flasks. The endogenous ATP pool is radioactively labeled by preincubating the cells in serum-free DMEM/25 mM Hepes medium containing 2 μCi/mL of [2,8-^3H]-adenine (20-Ci/mmol) in a 5% CO2 incubator at 37° C. for 75 min. The radioactive medium was removed by aspiration. Serum-free DMEM (5.6 mL) containing 25 mM HEPES, pH 7.4, and 0.1 mM of the phosphodiesterase inhibitor isobutylmethylxanthine was added to the flask. A […] aliquot of cells was removed and added to 50 μL of forskolin (100 μM) and 50 μL of test drug or quinpirole in DMEM-HEPES. The cells were incubated for 20 min at 37° C. (vortexing every 5 min). The reaction was terminated by the addition of 0.5 mL of 10% trichloroacetic acid (w/v) containing 1.0 mM unlabeled cyclic AMP as a recovery standard. Both the [^3H]-cyclic AMP and the [^3H]-ATP fractions were collected following separation using columns of Dowex AG-50W-X4 and alumina. The final yield of [^3H]-cyclic AMP is corrected for column recovery of unlabeled cyclic AMP determined spectrophotometrically (OD259). The results are reported as percent conversion of [^3H]-ATP into [^3H]-cyclic AMP. The values for the percent inhibition are reported as the actual percent of inhibition of the ^3H-cAMP accumulation relative to the assay performed in the absence of a test compound, minus basal activity. […] The percent maximum response is the value for the inhibition normalized to the value for the full agonist quinpirole.

[3] = molecular target: human D2-long dopamine receptor (Homo sapiens (Human), UniProt P14416); assay: Radioligand binding (125I-IABN competition), D2; conditions: HEK cell membranes expressing human D2-long
Description: as §1

[4] = molecular target: human D2 dopamine receptors (Homo sapiens (Human), UniProt P14416); assay: Whole Cell Adenylyl Cyclase Assay, D2; format: cell-based; conditions: inhibition of forskolin (100 μM) stimulated cAMP, normalized to quinpirole; compound conc ≥10× Ki (per compound); mean ± S.E.M.
Description: as §2

D3R = D3R (Homo sapiens (Human), UniProt P35462); assay: D3 Mitogenesis Functional Assay (3H-thymidine uptake, CHOp-D3 cells); format: cell-based; conditions: for Emax at 10 µM: % maximum stimulation vs quinpirole (100%), read-out: D3 Agonist Emax; for D3 Antagonist Imax: inhibition of quinpirole stimulation of mitogenesis; for IC50: read-out: D3 Antagonist IC50
Description: (§3) These assays are based on ^3H-thymidine uptake by cells that are proliferating.
CHO cells expressing human D3 receptors (CHOp-D3 cells) were maintained in alpha-MEM with 10% fetal bovine serum (FBS, Atlas Biologicals), 0.05% pen-strep, and 200 μg/ml of G418. […] The cells are incubated at 37° C. in alpha-MEM with 10% FBS. After 48-72 hours, the cells are rinsed twice with serum-free alpha-MEM and incubated for 24 hours at 37° C. Serial dilutions of test compounds were made by the Biomek robotics system in serum-free alpha-MEM. In the functional assay for agonism, the medium is removed and replaced with 100 μL of test compound in serum-free alpha-MEM. In the antagonist assay, the serial dilution of the putative antagonist test compound was added in 90 μL (1.1× of final concentration) and 300 nM quinpirole (30 nM final) was added in 10 uL. After another 16-hour incubation at 37° C., 0.25 μCi of [^3H]thymidine in alpha-MEM supplemented with 10% FBS was added to each well and the plates were further incubated for 2 hours at 37° C. The cells were trypsinized by addition of 10× trypsin solution (1% trypsin in calcium-magnesium-free phosphate-buffered saline) and the plates were filtered and counted as usual. Quinpirole was run as an internal control and dopamine was included for comparative purposes. Butaclamol was run as the standard antagonist. Data were analyzed using GraphPAD Prism and agonist potency was expressed as EC50 values or % stimulation and antagonist potency was expressed as IC50 values. In these assays, based on the % maximum stimulation as compared to the standard agonist quinpirole (100%) the compounds were classified into following categories: ≧90% full agonist; 70-90% partial to full agonist; <70% partial agonist; 0-20% potential antagonist.

human D2 receptors = human D2 receptors (Homo sapiens (Human), UniProt P14416); assay: D2 Mitogenesis Functional Assay (3H-thymidine uptake, CHOp-D2 cells); format: cell-based; conditions: for Emax at 10 µM: % maximum stimulation vs quinpirole (100%), read-out: D2 Agonist Emax; for Emax at 10 µM / D2 Antagonist Imax: at 10 μM; for D2 Antagonist Imax: inhibition of quinpirole stimulation of mitogenesis; for IC50: read-out: D2 Antagonist IC50
Description: as §3
CHO cells expressing human D2 receptors (CHOp-D2 cells) were maintained in alpha-MEM with 10% FCS, 0.05% pen-strep, and 200 μg/mL of G418. […] The cells were incubated at 37° C. in alpha-MEM with 10% FCS. After 48-72 hours, the cells were rinsed twice with serum-free alpha-MEM and incubated for 24 hours at 37° C. Serial dilutions of test compounds were made by the Biomek robotics system in serum-free alpha-MEM. In the functional assay for agonism, the medium was removed and replaced with 100 μL of test compound in serum-free alpha-MEM. In the antagonist assay, the serial dilution of the putative antagonist test compound was added in 90 μL (1.1× of final concentration) and 300 nM quinpirole (30 nM final) was added in […]. After another 24-hour incubation at 37° C., 0.25 μCi of [^3H]thymidine in alpha-MEM supplemented with 10% FCS was added to each well and the plates were further incubated for 2 hours at 37° C. The cells were trypsinized by addition of 10× trypsin solution (1% trypsin in calcium-magnesium-free phosphate-buffered saline) and the plates were filtered and counted as usual. Quinpirole was run as an internal control and dopamine was included for comparative purposes. Butaclamol was run as the standard antagonist.

[5] = inhibition of quinpirole (30 nM final) stimulation of mitogenesis

Chain of human D2-long dopamine receptor (P14416 whole entry): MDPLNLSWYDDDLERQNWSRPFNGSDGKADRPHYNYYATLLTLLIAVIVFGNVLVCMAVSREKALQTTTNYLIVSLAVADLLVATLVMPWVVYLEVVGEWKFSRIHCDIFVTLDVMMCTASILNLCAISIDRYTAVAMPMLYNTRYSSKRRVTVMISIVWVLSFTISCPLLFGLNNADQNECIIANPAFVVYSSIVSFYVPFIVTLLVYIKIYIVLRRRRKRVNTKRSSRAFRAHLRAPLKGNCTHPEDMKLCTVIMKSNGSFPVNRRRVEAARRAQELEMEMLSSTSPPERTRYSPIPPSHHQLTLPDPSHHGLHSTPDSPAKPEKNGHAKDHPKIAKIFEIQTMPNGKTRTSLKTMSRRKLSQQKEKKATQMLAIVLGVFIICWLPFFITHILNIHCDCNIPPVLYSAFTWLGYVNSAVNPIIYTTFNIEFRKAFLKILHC
Chain of human D2 receptors (P14416 whole entry): as above
Chain of human D2 dopamine receptors (P14416 whole entry): as above
T1 sequence (P35462 whole entry): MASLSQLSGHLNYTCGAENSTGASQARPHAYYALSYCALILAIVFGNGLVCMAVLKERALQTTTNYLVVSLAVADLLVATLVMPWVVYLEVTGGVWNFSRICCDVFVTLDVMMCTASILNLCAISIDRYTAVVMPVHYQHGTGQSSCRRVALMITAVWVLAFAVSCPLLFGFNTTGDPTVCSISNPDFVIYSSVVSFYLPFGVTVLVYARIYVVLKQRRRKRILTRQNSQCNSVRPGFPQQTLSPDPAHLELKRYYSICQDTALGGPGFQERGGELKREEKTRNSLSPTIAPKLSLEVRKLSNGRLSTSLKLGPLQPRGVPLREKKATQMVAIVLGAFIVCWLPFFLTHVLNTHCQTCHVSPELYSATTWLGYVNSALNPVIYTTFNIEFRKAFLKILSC
Chain of D3R (P35462 whole entry): as above

| SMILES | Ki [1] [nM] | D2/D3 (D3 selectivity ratio, D2 Ki/D3 Ki) [1] | D3 Cyclase % Inhibition Normalized [2] [%] | Ki [3] [nM] | D2 Cyclase % Inhibition Normalized [4] [%] | EC50 (D3R; CHOp-D3 cells, stimulation of mitogenesis, read-out: D3 Agonist EC50) [µM] | Emax at 10 µM (D3R) [%] | D3 Antagonist Imax (D3R) [%] | IC50 (D3R) [nM] | EC50 (human D2 receptors; CHOp-D2 cells, stimulation of mitogenesis, read-out: D2 Agonist EC50) [µM] | Emax at 10 µM (human D2 receptors) [%] | D2 Antagonist Imax (human D2 receptors) [% at 10 μM] | IC50 (human D2 receptors) [nM] | IC50 (D3R; [5]) [nM] | IC50 (human D2 receptors; [5]) [nM] |
| --- | --- | --- | --- | --- | --- | --- | --- | --- | --- | --- | --- | --- | --- | --- | --- |
| O=C(NCCCCN1CCN(c2ccccc2)CC1)N1CCN(c2ccccc2)CC1 [Compound 1, 4-Phenyl-N-(4-(4-phenylpiperazin-1-yl)butyl)piperazine-1-carboxamide] | 2 ± 0.2 | 62 | 48.3 ± 9.4 | 124 ± 26.2 | 91.4 ± 2.4 |  |  |  |  |  |  |  |  |  |  |
| N#Cc1cc(N2CCN(CCCCNC(=O)N3CCN(c4ccccc4)CC3)CC2)cc(C(F)(F)F)c1 [Compound 4, N-(4-(4-(3-Cyano-5-(trifluoromethyl)phenyl)piperazin-1-yl)butyl)-4-phenylpiperazine-1-carboxamide] | 4.1 ± 1 | 72 | 8.2 ± 4.2 | 294 ± 59.6 | −9.2 ± 8.3 |  |  |  |  |  |  |  |  |  |  |
| Cc1cc(N2CCN(CCCCNC(=O)N3CCN(c4ccccc4)CC3)CC2)nc(C(F)(F)F)n1 [Compound 7, N-(4-(4-(6-Methyl-2-(trifluoromethyl)pyrimidin-4-yl)piperazin-1-yl)butyl)-4-phenylpiperazine-1-carboxamide] | 41.5 ± 9.1 | 93 | 42.4 ± 8.9 | 3880 ± 1220 | 30.4 ± 14.6 |  |  |  |  |  |  |  |  |  |  |
| O=C(NCCCCN1CCN(c2ccnc3ccccc23)CC1)N1CCN(c2ccccc2)CC1 [Compound 11, 4-Phenyl-N-(4-(4-(quinolin-4-yl)piperazin-1-yl)butyl)piperazine-1-carboxamide] | 9.8 ± 1.2 | 119 | 43.1 ± 9.4 | 1170 ± 128 | 24.4 ± 3.8 |  |  |  |  |  |  |  |  |  |  |
| CC(C)(C)c1nc(N2CCN(CCCCNC(=O)N3CCN(c4cccc(C#N)c4)CC3)CC2)cc(C(F)(F)F)n1 [Compound 26, N-(4-(4-(2-(tert-Butyl)-6-(trifluoromethyl)pyrimidin-4-yl)piperazin-1-yl)butyl)-4-(3-cyanophenyl)piperazine-1-carboxamide] | 8.7 ± 2.2 | 81 | 20.0 ± 6.2 | 707 ± 96.2 | 34.0 ± 9.1 |  |  |  |  |  |  |  |  |  |  |
| CC(C)(C)c1nc(N2CCN(CCCCNC(=O)N3CCN(c4ncccn4)CC3)CC2)cc(C(F)(F)F)n1 [Compound 32, N-(4-(4-(2-(tert-Butyl)-6-(trifluoromethyl)pyrimidin-4-yl)piperazin-1-yl)butyl)-4-(pyrimidin-2-yl)piperazine-1-carboxamide] | 13.7 ± 3.1 | 87 | 40.8 ± 9.7 | 1190 ± 67.4 |  | > 10 | < 8 | 84.4 | 195 ± 39 | > 10 | < 1 | 100 | 257 ± 90 |  |  |
| O=C(NCCCCN1CCN(c2cccc(Cl)c2Cl)CC1)N1CCC(c2ccccc2)CC1 [Compound 47, N-(4-(4-(2,3-Dichlorophenyl)piperazin-1-yl)butyl)-4-phenylpiperidine-1-carboxamide] | 1.9 ± 0.4 | 53 | 78.9 ± 17.1 | 102 ± 11 |  |  | < 20 | 96.8 | 40 ± 15 |  | < 20 | 98.5 | 286 ± 27 |  |  |
| CC(C)(C)c1nc(N2CCN(CCCCNC(=O)c3cn4ccncc4n3)CC2)cc(C(F)(F)F)n1 [Compound 115, N-(4-(4-(2-(tert-Butyl)-6-(trifluoromethyl)pyrimidin-4-yl)piperazin-1-yl)butyl)imidazo[1,2-a]pyrazine-2-carboxamide] | 8 ± 1.6 | 56 | 37.8 ± 5.4 | 450 |  |  | < 20 | 94.7 |  |  | < 20 | 96.6 |  | 245 ± 33 | 420 ± 120 |
